The structures appear in SMILES notation.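 These data come from cells grown in 96-well plates and exposed to compound for 48 hours at five concentrations. Abbreviation: GI50, concentration required for 50% inhibition of growth. TGI: total growth inhibition.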

Test systems include UACC-62 melanoma; TK-10 renal; MDA-MB-231 breast; SK-MEL-2 melanoma; MOLT-4 leukemia; HCC-2998 colon; OVCAR-4 ovarian; OVCAR-8 ovarian; HCT-116 colon; HOP-62 NSCLC.
What all share (assay): growth of human tumour cells (NCI), 48 h

Take `COC(=O)c1c(-c2ccccc2)csc1NC(=O)c1c(-c2ccccc2)noc1C`: the GI50 in the assay on UACC-62 melanoma is 0.78 µM; with TK-10 renal, above 100 µM; in the assay on MDA-MB-231 breast, 7.66 µM; in the assay with MOLT-4 leukemia it was 1.22 µM; in the assay with HCC-2998 colon it was above 21 µM; with OVCAR-4 ovarian, 5.38 µM. Further, the figures for the GI50 in the assay with OVCAR-8 ovarian, in the assay on HCT-116 colon and in the assay on HOP-62 NSCLC were 0.776 µM, 0.379 µM and 4.56 µM, respectively. The TGI in the assay with UACC-62 melanoma, with TK-10 renal, in the assay on MDA-MB-231 breast, in the assay on SK-MEL-2 melanoma, in the assay on MOLT-4 leukemia and in the assay on HCC-2998 colon was above 100 µM throughout. Further, the TGI with OVCAR-4 ovarian, with OVCAR-8 ovarian, with HCT-116 colon and in the assay on HOP-62 NSCLC was above 100 µM throughout.
For the compound `COC(=O)c1ccc2c(c1)nc(-c1ccc(Cl)cc1)n2-c1cc(C(C)(C)C)[nH]n1`, the GI50 in the assay with UACC-62 melanoma was 2.01 µM; with TK-10 renal, 6.94 µM; with MDA-MB-231 breast, 4.62 µM; in the assay on SK-MEL-2 melanoma it was 3.89 µM; in the assay on MOLT-4 leukemia it was 5.48 µM; in the assay with HCC-2998 colon it was 3.9 µM. Also, the GI50 in the assay on OVCAR-4 ovarian is 3.4 µM; with OVCAR-8 ovarian, 7.33 µM; with HCT-116 colon, 3.46 µM; with HOP-62 NSCLC, 3.41 µM. Also, the TGI in the assay with UACC-62 melanoma is 7.78 µM; with TK-10 renal, above 100 µM; in the assay on MDA-MB-231 breast it was 27 µM; with SK-MEL-2 melanoma it was 18.1 µM; in the assay on MOLT-4 leukemia, above 100 µM; in the assay with HCC-2998 colon it was 19.8 µM. In addition, the TGI is above 100 µM in the assay on OVCAR-4 ovarian, 58.2 µM in the assay on OVCAR-8 ovarian, 12.3 µM in the assay on HCT-116 colon and 21 µM in the assay with HOP-62 NSCLC.
Consider `COc1ccc2c(CNCCCCO)cc3cc4c(cc3c2c1)OCO4`, for which the GI50 in the assay with UACC-62 melanoma was 1.59 µM; with TK-10 renal, 1.85 µM; in the assay on MDA-MB-231 breast, 2.06 µM; with SK-MEL-2 melanoma, 1.63 µM; in the assay on MOLT-4 leukemia, 0.263 µM; in the assay with HCC-2998 colon, 1.66 µM. In addition, the GI50 with OVCAR-4 ovarian was 2.31 µM; in the assay on OVCAR-8 ovarian, 0.341 µM; in the assay with HCT-116 colon, 0.609 µM; in the assay on HOP-62 NSCLC it was 1.98 µM. Moreover, the TGI stood at 3.29 µM with UACC-62 melanoma; 9.98 µM in the assay on TK-10 renal; 6.2 µM in the assay on MDA-MB-231 breast; 3.93 µM in the assay with SK-MEL-2 melanoma; 3.94 µM in the assay with MOLT-4 leukemia; 6.57 µM with HCC-2998 colon. Further, the TGI is 7.54 µM in the assay on OVCAR-4 ovarian, 6.68 µM in the assay on OVCAR-8 ovarian, 9.5 µM with HCT-116 colon and 10.6 µM in the assay on HOP-62 NSCLC.
For the compound `Nc1nc(Cl)nc2c1ncn2C1O[C@H](CO)[C@@H](O)[C@@H]1F` (stereo partly specified), the GI50 with UACC-62 melanoma is 0.362 µM; with SK-MEL-2 melanoma, above 100 µM; in the assay on MOLT-4 leukemia, 0.033 µM; with HCC-2998 colon, 0.075 µM; in the assay on OVCAR-4 ovarian, above 100 µM; in the assay on OVCAR-8 ovarian it was 0.0423 µM. Moreover, the values for the GI50 in the assay on HCT-116 colon and in the assay with HOP-62 NSCLC were 0.13 µM and 0.239 µM, respectively. In addition, the TGI in the assay with UACC-62 melanoma, in the assay with TK-10 renal, in the assay with MDA-MB-231 breast, in the assay on SK-MEL-2 melanoma, in the assay with HCC-2998 colon and in the assay on OVCAR-4 ovarian was above 100 µM throughout. Moreover, the TGI is above 100 µM in the assay on OVCAR-8 ovarian, above 100 µM in the assay with HCT-116 colon and 20.6 µM in the assay with HOP-62 NSCLC.
With `O=Nc1c(-c2cccc([N+](=O)[O-])c2)nc2ncccn12`, the GI50 was 14.4 µM with UACC-62 melanoma; 11 µM in the assay on TK-10 renal; 16.4 µM in the assay on MDA-MB-231 breast; 14.7 µM with SK-MEL-2 melanoma; 1.79 µM in the assay with MOLT-4 leukemia; 15.2 µM in the assay with HCC-2998 colon. Moreover, the GI50 with OVCAR-4 ovarian is 12 µM; in the assay on OVCAR-8 ovarian, 8.9 µM; in the assay on HCT-116 colon, 3.03 µM; in the assay on HOP-62 NSCLC, 20.9 µM. For the same compound, the TGI in the assay with UACC-62 melanoma worked out at 29.3 µM; in the assay on TK-10 renal, 30.2 µM; with MDA-MB-231 breast, 35.2 µM; in the assay with SK-MEL-2 melanoma it was 38.1 µM; in the assay on MOLT-4 leukemia, 5.31 µM; with HCC-2998 colon, 28.9 µM. The TGI in the assay on OVCAR-4 ovarian is 55.2 µM; with OVCAR-8 ovarian, 43.8 µM; in the assay with HCT-116 colon, 13.3 µM; with HOP-62 NSCLC it was 48.7 µM.

The record behind these values is PubChem BioAssay (NCI).
